Experimental data reported in EP0333004A2, “Light sensitive diazonium compounds, process for their preparation and their use” (priority 1988, dated 1989).

Key:
[1] = Combustion number (Brennziffer, BZ), safety characteristic; assay type: physicochemical; conditions: solid isolated diazonium salt form
[2] = Dust explosion class (ST), safety characteristic; assay type: physicochemical; conditions: solid isolated diazonium salt form
[3] = Onset of exothermic decomposition (EZ); assay type: physicochemical; conditions: for Exotherme Zer-setzung (EZ): temperature at which exothermic decomposition begins
[4] = Differential thermal analysis (DTA), violence of decomposition; assay type: physicochemical; conditions: characterises the violence of decomposition
[5] = Impact sensitivity; assay type: physicochemical
[6] = Explosion hazard; assay type: physicochemical
[7] = species and route not given; cited from earlier work
[8] = Solubility in water; assay type: physicochemical; conditions: 20 °C

Compound	Brenn-ziffer (BZ) [1]	Staubexplo-sionsklasse (ST) [2]	Exotherme Zer-setzung (EZ) [3]	Differential-thermoanalyse (DTA) [4]	schlagemp-findlich [5]	explosions-gefährlich [6]	LD₅₀-Wert (LD - Letale Dosis) [7]	solubility ([8]; read-out: Löslichkeit in Wasser)	exotherme Zersetzung, höher als bei dem entsprechenden Zinkchlorid-Doppelsalz ([3]; difference to the corresponding zinc chloride double salt)	Löslichkeit in Wasser [8]
4-N,N-Dimethylaminobenzoldiazoniumchlorzinkat [ZnCl2 stabilisiert R1=R2=CH3 R3 = H, reference compound]	3	0	100 °C	-720 kJ/kg	nein	nein	–	–	–	–
O=C(O)c1cc(S(=O)(=O)O)ccc1O [Sulfosalicylsäure]	–	–	–	–	–	–	2450 mg/kg	–	–	–
CN(C)c1ccc([N+]#N)cc1 [4-N,N-Dimethylaminobenzoldiazonium-sulfoisophthalat, reference compound]	–	–	–	–	–	–	–	3800 µg/mL	–	–
4-N,N-Dimethylaminobenzoldiazonium-sulfosalicylat [Sulfosalicylat R1=R2=CH3 R3 = H]	3	1	140 °C	-490 kJ/kg	nein	nein	–	–	40 °C	10,4 g/l
Cc1cc([N+]#N)ccc1N1CCCC1 [Sulfosalicylat R1,R2=(CH2)4 R3 = CH3, 3-Methyl-4-N-pyrrolidinobenzoldiazonium-sulfosalicylat]	3	1	120 °C	-400 kJ/kg	nein	nein	–	–	–	–
